# Results reported in patent US12377112B2, “Methods of treating neurocognitive disorders, chronic pain and reducing inflammation” (priority 2019, dated 2025).
# Test system: healthy subjects
# Assay: Phase 1 study: Social Cognition Panel (PET, RMET, SSR, SVO, TEQ)
# Assay type: in vivo, human
# Description: In some embodiments, Social Cognition Panel scales are utilized to evaluate the safety and/or efficacy of psilocybin. The social cognition panel scales comprise the pictorial empathy test (PET), reading the mind in the eyes test (RMET), social value orientation (SVO) test, the Toronto Empathy Questionnaire (TEQ), and the scale of social responsibility (SSR).
# In some embodiments, the Pictorial Empathy Test (PET) is utilized to evaluate the effect of psilocybin on affective empathy.
# In some embodiments, Reading the Mind in the Eyes Test (RMET) is utilized to evaluate the safety and/or efficacy of psilocybin. The RMET has 36 items, in which subjects are presented with a photograph of the eyes region of the face and must choose 1 of 4 adjectives or phrases to describe the mental state of the person pictured. A definition handout is provided at the beginning of the task and a practice item precedes the first trial.
# In some embodiments, the Social Value Orientation (SVO) test is utilized to evaluate the safety and/or efficacy of psilocybin. The SVO Slider Measure has 6 primary items with 9 secondary (and optional) items. All of the items have the same general form. Each item is a resource allocation choice over a well-defined continuum of joint payoffs.
# In some embodiments, the Toronto Empathy Questionnaire (TEQ) is utilized to evaluate the safety and/or efficacy of psilocybin. The TEQ represents empathy as a primarily emotional process. […] The TEQ is a brief, reliable and valid instrument for the assessment of empathy. In some embodiments, after treating according to the methods of the disclosure, a subject's TEQ score increases by about 5%, about 10%, about 15%, about 20%, about 25%, about 30%, about 35%, about 40%, about 45%, about 50%, about 55%, about 60%, about 65%, about 70%, about 75%, about 80%, about 85%, about 90%, about 95%, or about 100%, about 110%, about 120%, about 130%, about 140%, about 150%, about 160%, about 170%, about 180%, about 190%, about 200%, about 210%, about 220%, about 230%, about 240%, about 250%, about 260%, about 270%, about 280%, about 290%, or about 300%, or more, compared to prior to treatment.
# In some embodiments, the Scale of Social Responsibility (SSR) is utilized to evaluate the safety and/or efficacy of psilocybin. The SSR measures perceptions regarding the importance of ethics and social responsibility.
# The Pictorial Empathy Test (PET), Reading the Mind in the Eyes Test (RMET), Scale of Social Responsibility (SSR), Social Value Orientation (SVO), and Toronto Empathy Questionnaire (TEQ) were performed. Table 28 summarizes the results of the mixed model for repeated measures (MMRM) analysis for each of the aforementioned social cognition panel scales measured on Day 7 and Day 84 after study drug administration.
smiles,measurement,setting,value
"CN(C)CCc1c[nH]c2cccc(OP(=O)(O)O)c12 [Psilocybin, psilocybin]","PET change from baseline, LS mean difference Psilocybin 10 mg-Placebo",Day 7,−0.1
same,"PET change from baseline, LS mean difference Psilocybin 25mg-10mg",Day 7,0.3
same,"PET change from baseline, LS mean difference Psilocybin 25 mg-Placebo",Day 7,0.2
same,"RMET change from baseline, LS mean difference Psilocybin 10 mg-Placebo",Day 7,0.1
same,"RMET change from baseline, LS mean difference Psilocybin 25mg-10mg",Day 7,0.0
same,"RMET change from baseline, LS mean difference Psilocybin 25 mg-Placebo",Day 7,0.2
same,"SSR compliance social rules change from baseline, LS mean difference Psilocybin 10 mg-Placebo",Day 7,0.0
same,"SSR compliance social rules change from baseline, LS mean difference Psilocybin 25mg-10mg",Day 7,0.1
same,"SSR compliance social rules change from baseline, LS mean difference Psilocybin 25 mg-Placebo",Day 7,0.1
same,"SSR fulfilling expectations change from baseline, LS mean difference Psilocybin 10 mg-Placebo",Day 7,0.1
same,"SSR fulfilling expectations change from baseline, LS mean difference Psilocybin 25mg-10mg",Day 7,0.1
same,"SSR fulfilling expectations change from baseline, LS mean difference Psilocybin 25 mg-Placebo",Day 7,0.2
same,"SSR global change from baseline, LS mean difference Psilocybin 10 mg-Placebo",Day 7,1.2
same,"SSR global change from baseline, LS mean difference Psilocybin 25mg-10mg",Day 7,1.6
same,"SSR global change from baseline, LS mean difference Psilocybin 25 mg-Placebo",Day 7,2.8
same,"SVO angle change from baseline, LS mean difference Psilocybin 10 mg-Placebo",Day 7,3.4
same,"SVO angle change from baseline, LS mean difference Psilocybin 25mg-10mg",Day 7,−1.3
same,"SVO angle change from baseline, LS mean difference Psilocybin 25 mg-Placebo",Day 7,2.1
same,"SVO type change from baseline, LS mean difference Psilocybin 10 mg-Placebo",Day 7,0.1
same,"SVO type change from baseline, LS mean difference Psilocybin 25mg-10mg",Day 7,−0.0
same,"SVO type change from baseline, LS mean difference Psilocybin 25 mg-Placebo",Day 7,0.1
same,"TEQ change from baseline, LS mean difference Psilocybin 10 mg-Placebo",Day 7,0.1
same,"TEQ change from baseline, LS mean difference Psilocybin 25mg-10mg",Day 7,0.1
same,"TEQ change from baseline, LS mean difference Psilocybin 25 mg-Placebo",Day 7,0.2
same,"PET change from baseline, LS mean difference Psilocybin 10 mg-Placebo",Day 84,−0.1
same,"PET change from baseline, LS mean difference Psilocybin 25mg-10mg",Day 84,0.3
same,"PET change from baseline, LS mean difference Psilocybin 25 mg-Placebo",Day 84,0.1
same,"RMET change from baseline, LS mean difference Psilocybin 10 mg-Placebo",Day 84,0.2
same,"RMET change from baseline, LS mean difference Psilocybin 25mg-10mg",Day 84,0.3
same,"RMET change from baseline, LS mean difference Psilocybin 25 mg-Placebo",Day 84,0.5
same,"SSR compliance social rules change from baseline, LS mean difference Psilocybin 10 mg-Placebo",Day 84,−0.0
same,"SSR compliance social rules change from baseline, LS mean difference Psilocybin 25mg-10mg",Day 84,0.1
same,"SSR compliance social rules change from baseline, LS mean difference Psilocybin 25 mg-Placebo",Day 84,0.1
same,"SSR fulfilling expectations change from baseline, LS mean difference Psilocybin 10 mg-Placebo",Day 84,−0.1
same,"SSR fulfilling expectations change from baseline, LS mean difference Psilocybin 25mg-10mg",Day 84,0.2
same,"SSR fulfilling expectations change from baseline, LS mean difference Psilocybin 25 mg-Placebo",Day 84,0.0
same,"SSR global change from baseline, LS mean difference Psilocybin 10 mg-Placebo",Day 84,0.3
same,"SSR global change from baseline, LS mean difference Psilocybin 25mg-10mg",Day 84,1.8
same,"SSR global change from baseline, LS mean difference Psilocybin 25 mg-Placebo",Day 84,2.2
same,"SVO angle change from baseline, LS mean difference Psilocybin 10 mg-Placebo",Day 84,3.4
same,"SVO angle change from baseline, LS mean difference Psilocybin 25mg-10mg",Day 84,−1.0
same,"SVO angle change from baseline, LS mean difference Psilocybin 25 mg-Placebo",Day 84,2.4
same,"SVO type change from baseline, LS mean difference Psilocybin 10 mg-Placebo",Day 84,0.1
same,"SVO type change from baseline, LS mean difference Psilocybin 25mg-10mg",Day 84,−0.0
same,"SVO type change from baseline, LS mean difference Psilocybin 25 mg-Placebo",Day 84,0.1
same,"TEQ change from baseline, LS mean difference Psilocybin 10 mg-Placebo",Day 84,0.1
same,"TEQ change from baseline, LS mean difference Psilocybin 25mg-10mg",Day 84,0.0
same,"TEQ change from baseline, LS mean difference Psilocybin 25 mg-Placebo",Day 84,0.1
same,"SSR fulfilling expectations change from baseline, LS mean","Psilocybin 10 mg, Day 7",−0.1
same,"SSR fulfilling expectations change from baseline, LS mean","Psilocybin 10 mg, Day 84",−0.2
same,"TEQ change from baseline, LS mean","Psilocybin 10 mg, Day 84",−0.1
same,"SSR fulfilling expectations change from baseline, LS mean","Psilocybin 25 mg, Day 7",−0.0
same,"SSR fulfilling expectations change from baseline, LS mean","Psilocybin 25 mg, Day 84",−0.0
same,"TEQ change from baseline, LS mean","Psilocybin 25 mg, Day 84",−0.0
